Source: ChEMBL document CHEMBL3886943, “C2-azaspiro iminothiazine dioxides as BACE inhibitors, compositions, and their use” (2016)

Assays:
Beta-secretase 1 = Beta-secretase 1 (Homo sapiens, UniProt P56817); experiment: This assay monitors the increase of 620 nm fluorescence that resulted from BACE1 cleavage of an APPswedish APPswe mutant peptide FRET substrate (QSY7-[…]-Europium-amide). This substrate contains an N-terminal QSY7 moiety that serves as a quencher of the C-terminal Europium fluorophore (620 nm Em). […] Reactions are initiated by addition of 10 ul of 600 nM QSY7-APPswe-Eu substrate (200 nM final) to give a final reaction volume of 30 ul in a 384 well Nunc HTRF plate. The reactions are incubated at 30° C. for 1.5 hours. The 620 nm fluorescence is then read on a Rubystar HTRF plate reader (BMG Labtechnologies) using a 50 millisecond delay followed by a 400 millisecond acquisition time window. Inhibitor IC50 values are derived from non-linear regression analysis of concentration response curves.
Sequence of Beta-secretase 1 (P56817 whole entry): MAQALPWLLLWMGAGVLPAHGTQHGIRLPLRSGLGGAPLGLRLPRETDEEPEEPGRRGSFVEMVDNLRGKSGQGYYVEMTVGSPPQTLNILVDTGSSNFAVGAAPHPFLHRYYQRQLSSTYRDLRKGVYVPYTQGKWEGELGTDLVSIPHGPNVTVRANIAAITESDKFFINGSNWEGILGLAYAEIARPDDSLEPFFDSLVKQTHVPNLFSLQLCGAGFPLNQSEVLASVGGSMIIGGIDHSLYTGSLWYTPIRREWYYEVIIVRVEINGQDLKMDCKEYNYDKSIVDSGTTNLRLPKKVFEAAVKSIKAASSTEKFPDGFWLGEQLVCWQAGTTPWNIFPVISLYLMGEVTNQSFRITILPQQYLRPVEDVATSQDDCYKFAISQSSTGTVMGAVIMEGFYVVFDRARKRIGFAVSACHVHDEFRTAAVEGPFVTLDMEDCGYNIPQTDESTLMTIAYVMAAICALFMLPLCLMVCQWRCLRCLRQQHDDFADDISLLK

Beta-secretase 2 = target: T1, Beta-secretase 2 (Homo sapiens, UniProt Q9Y5Z0); experiment: DMSO is present at 5% final concentration in the assay. Following laser excitation of sample wells at 320 nm, the fluorescence signal at 620 nm is collected for 400 ms following a 50 us delay on a RUBYstar HTRF plate reader (BMG Labtechnologies). Raw RFU data is normalized to maximum (1.0 nM BACE/DMSO) and minimum (no enzyme/DMSO) RFU values. […] The Ki values are calculated from the IC50 using the Cheng-Prusoff equation.
T1 sequence (Q9Y5Z0 whole entry): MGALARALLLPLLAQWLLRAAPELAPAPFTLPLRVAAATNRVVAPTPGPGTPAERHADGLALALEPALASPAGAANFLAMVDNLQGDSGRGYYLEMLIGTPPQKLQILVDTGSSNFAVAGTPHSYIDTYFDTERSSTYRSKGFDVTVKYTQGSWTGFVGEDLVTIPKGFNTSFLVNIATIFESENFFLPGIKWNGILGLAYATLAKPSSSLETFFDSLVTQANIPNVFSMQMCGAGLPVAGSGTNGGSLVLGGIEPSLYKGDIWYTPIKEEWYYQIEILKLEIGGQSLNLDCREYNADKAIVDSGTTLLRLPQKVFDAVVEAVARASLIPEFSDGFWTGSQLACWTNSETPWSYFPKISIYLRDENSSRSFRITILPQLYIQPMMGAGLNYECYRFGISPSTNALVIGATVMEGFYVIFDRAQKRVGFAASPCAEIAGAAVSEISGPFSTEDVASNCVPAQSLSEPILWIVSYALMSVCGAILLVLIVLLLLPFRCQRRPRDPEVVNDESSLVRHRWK

- Ki (Beta-secretase 1): 1710 nM
- Ki (Beta-secretase 2): 210 nM
SMILES: CN1CCC2(CC1)C(=N)N[C@](C)(c1cc(NC(=O)C(F)F)ccc1F)CS2(=O)=O
